Results: patent publication US6645726B1, “Canine growth hormone secretagogue receptor” (Merck & Co., Inc., priority 1998, dated 2003)

Key:
[1] = target: T1, native canine pituitary GHSR (Canis lupus familiaris, UniProt A5HKU8); assay: [35S]-MK-677 competition binding, native canine pituitary GHSR; conditions: comparison value
T1 construct: native canine pituitary GHSR; from tissue; host or cells: canine pituitary

cloned canine GHSR = target: T2, cloned canine GHSR (Canis lupus familiaris, UniProt A5HKU8); assay: [35S]-MK-677 competition binding, cloned canine GHSR membranes; conditions: competition with 35S-MK-677, crude membranes of transfected COS-7 or HEK-293 cells, 20° C., 1 hr
T2 construct: full-length open reading frame placed in the mammalian expression vector pcDNA-3; expressed in transfected cells; host or cells: COS-7 or HEK-293 (crude membranes)
Method: Expression of the canine -GHSR was monitored using a [^35S]-MK-677 binding assay conducted on cells transfected with a canine GHSR expression plasmid (full-length open reading frame placed in the mammalian expression vector pcDNA-3). Mammalian cells (COS-7, HEK-293) were transfected with GHSR expression plasmids using Lipofectamine (GIBCO-BRL; Hawley-Nelson, 1993, Focus 15:73). Transfections were performed in 60 mm dishes on 80% confluent cells (approximately 4×10^5cells) with 8 μg of Lipofectamine and 32 μg of GHSR plasmid DNA.
Binding of ^35S-MK-677 to crude membranes prepared from COS-7 or HEK-293 cells transfected with GHSR expression plasmids was conducted. Crude cell membranes from COS-7 transfectants were prepared on ice, 48 hrs post-transfection. Each 60 mm dish was washed twice with 3 ml of PBS, once with 1 ml homogenization buffer (50 mM Tris-HCl (pH 7.4), 5 mM MgCl2, 2.5 mM EDTA, 30 μg/ml bacitracin). 0.5 ml of homogenization buffer was added to each dish, cells were removed by scraping and then homogenized using a POLYTRON device (Brinkmann, Syosset, N.Y.; 3 bursts of 10 seconds at setting 4). […] After application of the membrane suspension to the filter, the filters were washed 3 times with 3 ml each of ice cold 50 mM Tris-HCl (pH 7.4), 10 mM MgCl2, 2.5 mM-EDTA, and 0.015% Triton X-100, and the bound radioactivity on the filters was quantitated by scintillation counting.

T1 sequence (A5HKU8 1-349): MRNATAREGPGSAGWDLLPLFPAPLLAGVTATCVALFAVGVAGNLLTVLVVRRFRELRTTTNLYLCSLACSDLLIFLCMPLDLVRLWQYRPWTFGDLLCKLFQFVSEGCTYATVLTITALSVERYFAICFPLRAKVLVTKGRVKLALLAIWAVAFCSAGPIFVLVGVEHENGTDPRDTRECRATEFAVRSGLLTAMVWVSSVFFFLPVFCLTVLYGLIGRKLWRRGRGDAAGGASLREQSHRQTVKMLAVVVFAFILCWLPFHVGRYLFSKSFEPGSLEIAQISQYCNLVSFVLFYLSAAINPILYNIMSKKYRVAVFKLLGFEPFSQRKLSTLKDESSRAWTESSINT
T2 sequence (A5HKU8 1-349): as above

- IC50 [1]: 1 nM
- IC50 (cloned canine GHSR): 2.2 nM
Structure (SMILES): CC(C)(N)C(=O)N[C@H](COCc1ccccc1)C(=O)N1CCC2(CC1)CN(S(C)(=O)=O)c1ccccc12 [MK-677]
